Test results published in US7279500B2, “Sulfonamide cannabinoid agonists and antagonists” (Virginia Commonwealth University, priority 2002, dated 2007).
Read-outs that look alike come from different tables or passages of the source.

What was measured:
CB1 receptor [1] = molecular target: T1, CB1 receptor (Rattus norvegicus, UniProt P20272); assay: GTPγS binding in rat brain membranes, compound alone (inverse agonism); format: biochemical; design: from tissue; host or cells: rat brain membranes; details: for GTPγS stimulation (1 μM): rat brain membranes
Excerpt: FIG. 2. Compound O-2050 lacks inverse agonism in GTPγS binding in rat brain membranes. X axis, concentration of O-2050 (M); Y axis, % stimulation of GTPγS binding.
In order to determine whether O-2050 had inverse agonist properties, the compound was examined alone in the GTPγS binding assay. […] The performance of O-2050 in this assay in comparison to two other compounds with unsaturated side chains and varying R groups (O-1991, R=ethyl, and O-1993, R=butyl) are given in Table 3.

CB1 receptor [2] = molecular target: CB1 receptor (UniProt P21554); assay: CB1 receptor affinity assay; format: binding; details: for Kd: read-out: CB1KD
Experimental: (§1) Mouse Tetrad and CB1 and CB2 receptor Affinity. The mouse tetrad and CB1 and CB2 receptor affinity assays were carried out as previously described in Wiley, J. L., Beletskaya, I. D., Ng, E. W., Dai, Z., Crocker, P. J., Mahadevan, A, Razdan, R. K., Martin, B. R., Resorcinols derivatives: a novel template for the delevopment of cannabinoid CB1/CB2 and CB2-selective agonists. J. Pharmacol. Exp. Ther. 301: 679-689, 2002.
(§2) The incorporation of sulfonaminde moieties is known to impart antagonistic activity in some classes of compounds. There is precedent for sulfonamide derivatives to show potent antagonist activity in peptidoleukotrienes (see for example, Matassa et al., J. Med. Chem. 1990, 33, 2621-2629; Jacobs et al., J. Med. Chem. 1993, 36, 394-409). In the development of the present invention, a sulfonamide moiety, SO2R, in which the identity of R was varied, was incorporated into the terminal position of a tetrahydrocannabinol (THC) side chain, which was also varied (saturated or unsaturated) as described above. The resulting compounds were tested for CB1 and CB2 receptor binding affinity, and cannabinoid agonist and antagonist properties using the mouse tetrad test, as described in Materials and Methods.

CB1 receptor [3] = molecular target: T2, CB1 receptor (Mus musculus, UniProt P47746); assay: Antagonism of WIN 55,212-2 inhibition of electrically induced contractions of mouse vas deferens; format: cell-based
T2 construct: O-2050 behaves as a CB1 receptor antagonist at naturally expressed CB1 receptors; from tissue; host or cells: mouse vas deferens
Experimental: FIG. 3. Compound O-2050 antagonism of WIN 55,212-2 in mouse vas deferens. X axis, concentration of WIN 55,212-2; Y axis, % inhibition of WIN 55,212-2 activity (mean % inhibition±standard error [s.e.] of the mean). Open circles=vehicle control (WIN 55212-2 added after pretreatment with dimethylsulfoxide (DMSO), the solvent in which the O-2050 was dissolved; open triangles: 1 nM O-2050 (WIN 55,212-2 added after pretreatment with 1 nM O-2050); filled circles: 10 nM O-2050 (WIN 55,212-2 added after pretreatment with 10 nM O-2050); filled triangles: 31.62 nM O-2050 (WIN 55,212-2 added after pretreatment with 31.62 nM O-2050); filled squares: 100 nM O-2050 (WIN 55,212-2 added after pretreatment with 100 nM O-2050.
These observations were extended by examining O-2050 in the mouse vas deferens, a smooth muscle preparation that is regulated by the cannabinoid system.

mice = assay: Mouse tetrad test (sedation, analgesia, hypothermia) following i.v. administration; format: in vivo; details: for ED50: iv
Experimental: as §1, §2
The compounds were tested for their CB1 and CB2 receptor binding ability, and their cannabinoid agonist and antagonist properties.

CB1 receptor [4] = molecular target: T1, CB1 receptor; assay: Block of CP 55,940-stimulated GTPγS binding in rat brain tissue; format: biochemical; design: from tissue; host or cells: rat brain tissue
Experimental: FIG. 1. Compound O-2050 blocks CP 55,940 stimulation of GTPγS binding. O-2050 was tested for its ability to block stimulation of GTPγS binding by CP 55,940. […], log concentration of O-2050; Y axis, % stimulation by CP 55,940.
The above properties of O-2050 are indicative of an antagonist. Therefore, the ability of O-2050 to block the agonist effects of CP 55,940, a highly efficacious cannabinoid, in the in vitro GTPγS binding assay in rat brain tissue was tested. The assay is an in vitro functional measure of CB1 receptor activation.

CB2 receptor = CB2 receptor (Homo sapiens, UniProt P34972); assay: CB2 receptor affinity assay; format: binding
Experimental: as §1, §2

mouse vas deferens [5] = assay: Mouse vas deferens, compound alone (inverse agonism); format: cell-based; details: up to 1000 nM
Excerpt: FIG. 4. Compound O-2050 lacks inverse agonism in GTPγS binding in mouse vas deferens. Y axis, % enhancement±s.e. (standard error of the mean) of GTPγS binding in mouse vas deferens by O-2050 at the indicated concentrations.
In order to determine whether O-2050 has inverse agonist properties in the mouse vas deferens, the compound was examined alone in this tissue preparation. […] O-2050 therefore differs from the putative inverse agonist, SR141716A, which does enhance the amplitude of these contractions in this bioassay system (e.g. see Pertwee et al., 1996, Eur. J. Pharmacol. 315: 195-201). […] Therefore, O-2050 lacks inverse agonist properties in yet another system that is regulated by the cannabinoids.

mouse vas deferens [6] = details: literature, Pertwee et al. 1996; cited from earlier work
[7] = mouse tetrad, i.v. administration, read-out: Analgesia ED50
[8] = mouse tetrad, i.v. administration, read-out: Sedation ED50
[9] = mouse tetrad, i.v. administration, read-out: Temperature (hypothermia) ED50
[10] = mouse tetrad, i.v. administration

T1 sequence (P20272 whole entry): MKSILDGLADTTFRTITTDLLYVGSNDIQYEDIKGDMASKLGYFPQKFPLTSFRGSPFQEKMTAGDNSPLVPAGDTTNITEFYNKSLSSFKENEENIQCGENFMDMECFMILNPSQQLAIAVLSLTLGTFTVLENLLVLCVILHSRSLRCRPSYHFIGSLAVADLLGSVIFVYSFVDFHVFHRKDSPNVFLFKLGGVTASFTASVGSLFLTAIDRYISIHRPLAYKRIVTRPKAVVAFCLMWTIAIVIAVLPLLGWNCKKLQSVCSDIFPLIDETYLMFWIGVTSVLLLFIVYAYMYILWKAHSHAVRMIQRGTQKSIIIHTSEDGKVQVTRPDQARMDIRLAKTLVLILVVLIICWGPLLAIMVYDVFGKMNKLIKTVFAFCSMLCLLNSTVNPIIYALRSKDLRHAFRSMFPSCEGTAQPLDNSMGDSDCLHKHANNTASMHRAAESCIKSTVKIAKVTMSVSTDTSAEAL
T2 sequence (P47746 whole entry): as the sequence (P20272 whole entry) above, with E95D counted along it
Chain of CB2 receptor (P34972 whole entry): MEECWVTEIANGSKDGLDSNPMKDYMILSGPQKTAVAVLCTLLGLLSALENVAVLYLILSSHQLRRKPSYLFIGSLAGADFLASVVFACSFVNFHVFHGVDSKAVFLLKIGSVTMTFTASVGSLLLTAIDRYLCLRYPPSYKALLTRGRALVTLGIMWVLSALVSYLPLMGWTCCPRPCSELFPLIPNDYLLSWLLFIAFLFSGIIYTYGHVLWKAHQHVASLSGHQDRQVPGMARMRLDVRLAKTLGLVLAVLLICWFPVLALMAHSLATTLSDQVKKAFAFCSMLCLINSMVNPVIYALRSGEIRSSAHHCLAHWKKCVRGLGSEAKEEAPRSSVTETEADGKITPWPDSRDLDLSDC

| Compound | GTPγS stimulation (1 μM) (CB1 receptor [1]) [%] | CB1 receptor affinity (in words) (CB1 receptor [2]) | Kd (CB1 receptor [2]) [nM] | Negative stimulation of GTPγS binding / agonist character (in words) (CB1 receptor [1]) | ED50 (mice; [7]) [mg/kg] | ED50 (mice; [8]) [mg/kg] | ED50 (mice; [9]) [mg/kg] | CB2 receptor affinity (in words) (CB2 receptor) | Kd (CB2 receptor) [nM] | Agonist potency in mouse tetrad test (in words) (mice; i.v. administration) | further results |
| --- | --- | --- | --- | --- | --- | --- | --- | --- | --- | --- | --- |
| CCCCCc1cc(O)c2c(c1)OC(C)(C)[C@@H]1CCC(C)=C[C@@H]21 [THC, reference compound] | 15 | – | – | – | – | – | – | – | – | – | – |
| CC1=CCC2C(C1)c1c(O)cc(CC#CCCCNS(C)(=O)=O)cc1OC2(C)C (stereo not shown) [Compound O-2050, 3-Norpentyl-3-(6-methanesulfamidohex-2-yne-yl)-Δ^8-tetrahydrocannabinol] | 11 | high affinity | 2.5 ± 0.4 | failed to produce negative stimulation | > 30 | 4.3 | > 30 | high affinity | 0.2 ± 0.06 | – | Kb (CB1 receptor [3]): 1 nM; Dextral Shift of WIN 55,212-2 log concentration-response curve (CB1 receptor [3]; 1 nM O-2050): 2.8; Dextral Shift of WIN 55,212-2 log concentration-response curve (CB1 receptor [3]; 10 nM O-2050): 7.5; Dextral Shift of WIN 55,212-2 log concentration-response curve (CB1 receptor [3]; 20 nM O-2050): 15; Dextral Shift of WIN 55,212-2 log concentration-response curve (CB1 receptor [3]; 100 nM O-2050): 104; Sedation (in words) (mice; mouse tetrad): only weakly active; Analgesia ED50 (mice; [10]): >30 mg/kg; Temperature (hypothermia) ED50 (mice; [10]): >30 mg/kg; Kb (CB1 receptor [4]): 1 nM; Enhancement of amplitude of electrically-evoked contractions (mouse vas deferens [5]): did not enhance |
| Cc1c(C(=O)NN2CCCCC2)nn(-c2ccc(Cl)cc2Cl)c1-c1ccc(Cl)cc1 [SR141716A] | – | – | – | – | – | – | – | – | – | – | Enhancement of amplitude of electrically-evoked contractions (mouse vas deferens [6]): does enhance |
| CC1=CCC2C(C1)c1c(O)cc(C(C)(C)CCCCNS(=O)(=O)c3ccccc3)cc1OC2(C)C (stereo not shown) [Compound O-2048, 1,1-Dimethyl-5-phenylsulfamido-Δ^8-tetrahydrocannabinol] | – | high affinity | 4.1 ± 0.4 | – | 2.8 | 0.3 | 5.6 | high affinity | – | potent cannabinoid agonists | – |
| CCCCS(=O)(=O)NCCCC#CCc1cc(O)c2c(c1)OC(C)(C)C1CC=C(C)CC21 (stereo not shown) [Compound O-1993] | 30 | moderate affinity | 70 ± 10 | weak agonists | 14 | 7.6 | 12 | only moderate affinity | 86 ± 7 | moderate to low pharmacological agonist potency | – |
| CCS(=O)(=O)NCCCC#CCc1cc(O)c2c(c1)OC(C)(C)C1CC=C(C)CC21 (stereo not shown) [Compound O-1991, 3-Norpentyl 3-(6-ethanesulfamidohex-2-yne-yl)-Δ^8-tetrahydrocannabinol] | 29 | moderate affinity | 20 ± 13 | weak agonists | 0.9 | 1.7 | 0.8 | high affinity | 1.4 ± 0.2 | moderate to low pharmacological agonist potency | – |
| CCS(=O)(=O)NCCCCC(C)(C)c1cc(O)c2c(c1)OC(C)(C)C1CC=C(C)CC21 (stereo not shown) [Compound O-2113, 1,1-Dimethyl-5-ethanesulfamido-Δ^8-tetrahydrocannabinol] | – | high affinity | 1.7 ± 0.3 | – | 0.3 | 0.4 | 1.4 | high affinity | – | potent cannabinoid agonists | – |
